System: P388
Assay: Inhibitory concentration required for cytotoxic effect against P388 murine leukemia cells
Type: functional, cell-based
Details: Mus musculus

| SMILES | IC50 |
| --- | --- |
| C=CC(C)(C)c1[nH]cnc1/C=C1\NC(=O)[C@H](Cc2ccccc2)NC1=O | 0.35 µM |
| C=CC(C)(C)c1[nH]cnc1/C=C1\NC(=O)[C@@H](Cc2ccccc2)NC1=O | 38 µM |

— ChEMBL document CHEMBL1152013, “()-Phenylahistin: A new mammalian cell cycle inhibitor produced by aspergillus ustus” (Bioorg Med Chem Lett, 1997)
